Series [1] deals with 5xFAD mice. The series can be described thus: Brain Aβ1–40 and Aβ1–42 ELISA of soluble and insoluble brain fractions after repetitive anti-PCSK9 antibody injection. The format is in vivo, mouse. The settings on record: n = 4–14 per group. The protocol:
(§1) 14-weeks-old female 5xFAD transgenic or wildtype littermates were randomized into groups with similar average body weights (18–20 g), respectively. 1 µg/g Alirocumab (Sanofi), Evolocumab (Amgen), or non-specific human IgG2 control antibody (Bio X Cell) in 0.9% isotonic saline solution (BBraun) or the analogous volume of pure 0.9% isotonic saline solution were weekly i.p. injected for a period of 10 weeks. 7 days before starting the injection procedure LRP1^BE−/− was induced by i.p. injection of 75 µg/g tamoxifen (Sigma-Aldrich) for 5 consecutive days and maintained with chow containing 400 mg/kg tamoxifen citrate (LASvendi). To sacrifice animals, mice were anesthetized with 100 µg/g ketamine (Pfizer) in combination with 10 µg/g xylazine (Bayer HealthCare) and euthanized by cervical dislocation.
Extracted blood was supplemented with an EDTA-free protease inhibitor cocktail (Roche Applied Science) and allowed to clot at room temperature for 10 min. Liver were weighed and homogenized in 3 ml/g fresh cold tissue lysis buffer [50 mmol/l Tris (pH 7.4), 150 mmol/l NaCl, 0.1% (w/v) SDS, 1% (v/v) Nonidet P-40, 0.5% (w/v) sodium deoxycholate, 1 mmol/l EDTA (pH 7.4)] containing an EDTA-free protease inhibitor cocktail using the Precellys Lysing Kit (Bertin instruments). Extracts were purified for 3 min (18,620 rcf, 4 °C). CSF samples were isolated via puncture of cisterna magna as described previously and purified for 10 min (1000 rcf, 4 °C). Brains were weighed and soluble and insoluble brain fractions sequential extracted. Initially, homogenization by a glass homogenizer occurred in 6 ml/g PBS, containing an EDTA-free protease inhibitor cocktail and 1 mmol/l EDTA (pH 7.4). The homogenate was centrifuged for 20 min (131,700 rcf, 4 °C) and the supernatant (soluble brain fraction) isolated. Subsequently, the brain pellet was homogenized in 4 ml/g PBS containing 2% (v/v) SDS using the Precellys Lysing Kit. Centrifugation was repeated and the supernatant (insoluble brain fraction) collected. The preparation of capillary-depleted brain fractions based on an established protocol. Briefly, brains were weighed, homogenized by a glass homogenizer in 6 ml/g PBS, and centrifuged for 5 min (1350 rcf, 4 °C). The pellet was resuspended in 3 ml/g PBS, containing 18% dextran (~ 70,000 g/mol; Roth), vortexed thoroughly for 1 min, and centrifuged for 10 min (4863 rcf, 4 °C). Subsequently, the supernatant (capillary-free brain fraction) was transferred, mixed thoroughly with 3 ml/g PBS, and centrifuged for 5 min (1350 rcf, 4 °C). The brain parenchymal pellet was lysed for 20 min using tissue lysis buffer containing an EDTA-free protease inhibitor cocktail and 1 mmol/l EDTA (pH 7.4) and purified for 20 min (18,620 rcf, 4 °C). Each isolated sample was snap frozen via liquid nitrogen and stored at − 80 °C.
The levels of Aβ1–40 and Aβ1–42 in soluble and insoluble brain fractions were blindly determined using Human Amyloid β (FL) Assay Kits (Immuno-Biological Laboratories) according to the manufacturer’s protocol.
Fig. 4 Peripheral PCSK9 inhibition reduces overall Aβ burden. […] Lanes were run on the same gel but were noncontinuous. Aβ1–40 and Aβ1–42 signals were verified by loading peptide standards. Data represent mean ± SEM of n = 4–14 mice per group. For statistical analyses one-way ANOVA followed by Tukey’s multiple comparison test was used (*p < 0.05; **p < 0.01)
Background: In an ELISA, binding on a coated surface is turned into a signal by an enzyme label.

Series [2] relates to 5xFAD mice. The series can be described thus: Plaque load quantification by immunofluorescence. It is filed as in vivo, mouse. Particulars: 6-month-old 5xFAD mice, 1 µg/g Alirocumab for 10 weeks vs 0.9% NaCl, plaques ≥ 80 µm2, mean. The protocol: as §1, with “To sacrifice animals, mice were anesthetized with 100 µg/g ketamine (Pfizer) in combination with 10 µg/g xylazine (Bayer HealthCare) and euthanized by cervical dislocation.” left out
Mice were transcardially perfused with ice-cold PBS followed by 4% Roti®-Histofix (Roth). […] Within one hemisphere 12 sections were analyzed; 6 representatives for prefrontal cortex (corresponding to bregma from 0.86 to + 0.62 mm) and 6 for the hippocampus (corresponding to bregma from − 1.82 to − 2.06 mm). Plaque load (aggregates ≥ 80 µm^2) was quantified using the NIH ImageJ 1.52 software as described previously.
Fig. 5 Aβ plaque load of prefrontal cortex and hippocampus is reduced due to systemic PCSK9 inhibition. A Prefrontal cortex and B hippocampus of 6-month-old 5xFAD mice treated with 1 µg/g alirocumab or 0.9% NaCl for ten weeks were quantified for amyloid plaques. […]

Series [3] has as its system 5xFAD mice. The series can be described thus: Fear conditioning (contextual and cued fear response, behaviour in training phase). The format is in vivo, mouse. The settings on record: n = 8–13 per group. The protocol: as §1
24-week-old female 5xFAD mice LRP1^BEfl/fl or LRP1^BE−/− and wildtype age-matched female littermates treated as described earlier were assessed for contextual and cued fear response adapted to previous studies, using the computerized TSE Multi Conditioning System (TSE GmbH). Movement was assessed by high-resolution infrared sensors (100 Hz) in three dimensions (14 mm distant) and documented by the FCS software. In the training phase, mice were placed in the conditioning chamber for 3 min, followed by a 30-s tone application (72 dB, 9 kHz). During the last 2 s, the tone was accompanied by shock delivery (0.7 mA). Contextual memory testing was performed 24 h-post conditioning, confronting the animals 3 min to the training context without tone application. Cued memory was assessed 2 h later, by pre-exposing the animals 3 min to a non-conditioned context, followed by a tone application for 60 s according to the training session. Freezing behavior (the absence of all but respiratory movements ≥ 2 s), motoric abilities, environmental behavior (% of explored area), and activity (≥ 30 mm/s)/hyperactivity (≥ 200 mm/s) levels were recorded automatically.
Fig. 6 Peripheral PCSK9 inhibition improves contextual memory formation of 5xFAD transgenic mice in a Fear Conditioning paradigm. 6-month-old 5xFAD mice treated with 1 µg/g Alirocumab or 0.9% NaCl for 10 weeks were analyzed for A hippocampus-dependent contextual fear response and B hippocampus-independent cued fear response in comparison to wildtype and LRP1^BE−/− littermates. […] Higher freezing behavior percentage indicates stronger memory formation. Data represent mean ± SEM of n = 8–13 mice per group. For statistical analyses one-way ANOVA followed by Tukey’s multiple comparison test was used (*p < 0.05; **p < 0.01)

Series [4] deals with 5xFAD mice. The series can be described thus: Immunoblot of liver lysates, serum, capillary-depleted brain fractions and CSF. It is filed as in vivo, mouse. The settings on record: 6-month-old 5xFAD mice, 1 µg/g Alirocumab for 10 weeks vs 0.9% NaCl. The protocol: as §1, with “To sacrifice animals, mice were anesthetized with 100 µg/g ketamine (Pfizer) in combination with 10 µg/g xylazine (Bayer HealthCare) and euthanized by cervical dislocation.” left out
Protein concentrations were determined using the Pierce™ BCA Protein Assay Kit (Thermo Fisher Scientific) according to the manufacturer’s protocol. […]
Fig. 3 Systemic PCSK9 inhibition increases peripheral LRP1 level. A Liver lysates, B serum, as well as C capillary-depleted brain fractions and D CSF samples of 6-month-old 5xFAD mice, treated repetitively with A–C 1 µg/g Alirocumab or D Evolocumab in comparison to A–C 0.9% NaCl or D non-specific human control IgG2 for 10 weeks were evaluated via immunoblot analyses for LRP1 (full length, α-chain, β-chain), LDL receptor, human as well as mouse IgG, and ApoE, and representatively presented. […]

The subject of series [5] is 5xFAD mice. The series can be described thus: Serum LDL/VLDL and HDL cholesterol. It is filed as in vivo, mouse. The settings on record: 6-month-old 5xFAD mice, 1 µg/g Evolocumab for 10 weeks vs non-specific human IgG2 control antibody; n = 8–9 per group. The protocol:
as §1
Serum VLDL/LDL and HDL cholesterol were separated and concentrations blindly determined using the Cholesterol Assay Kit—HDL and LDL/VLDL (Abcam) according to the manufacturer’s protocol.
Supplementary Fig. 2 Systemic PCSK9 inhibition reduces serum LDL/VLDL and free PCSK9 levels. (A) Serum LDL/VLDL- and (B) HDL-cholesterol levels of 6-months-old 5xFAD mice, treated repetitively with 1 µg/g Evolocumab or non-specific human IgG2 control antibody for ten weeks were assessed via ELISA. […] Levels of immunoprecipitated PCSK9 were evaluated via immunoblot analyses and representatively presented

The next series deals with T1, PCSK9 (Mus musculus, UniProt Q80W65).
T1 construct: substantially decreases the amount of free circulating PCSK9; from tissue; host or cells: serum of 6-month-old 5xFAD mice
T1 sequence (Q80W65 156-694): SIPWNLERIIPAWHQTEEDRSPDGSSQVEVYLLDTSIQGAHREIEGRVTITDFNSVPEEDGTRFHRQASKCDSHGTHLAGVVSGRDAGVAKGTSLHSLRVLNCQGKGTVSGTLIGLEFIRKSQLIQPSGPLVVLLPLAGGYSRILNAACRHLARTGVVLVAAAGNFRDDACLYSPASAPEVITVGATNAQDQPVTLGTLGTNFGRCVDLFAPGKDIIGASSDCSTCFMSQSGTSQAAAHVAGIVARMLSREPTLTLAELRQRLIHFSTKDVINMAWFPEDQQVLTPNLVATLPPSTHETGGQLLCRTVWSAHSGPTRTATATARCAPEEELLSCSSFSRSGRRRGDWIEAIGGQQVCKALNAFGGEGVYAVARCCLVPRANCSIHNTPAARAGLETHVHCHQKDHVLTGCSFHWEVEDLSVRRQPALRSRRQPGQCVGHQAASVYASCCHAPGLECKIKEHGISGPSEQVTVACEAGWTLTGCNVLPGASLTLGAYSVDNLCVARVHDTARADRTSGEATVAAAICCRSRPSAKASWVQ
The series can be described thus: Free circulating PCSK9 in serum (immunoprecipitation with crosslinked Evolocumab, immunoblot). It is filed as in vivo. The settings on record: 6-month-old 5xFAD mice, 1 µg/g Evolocumab for 10 weeks vs non-specific human IgG2 control antibody. The protocol:
Precleared serum via raw Protein A Agarose (Roche) was diluted in PBS containing an EDTA-free protease inhibitor cocktail and incubated with Protein A Agarose crosslinked to Evolocumab overnight at 4 °C. Beads were washed three times with PBS, followed by elution in 100 mmol/l glycine (pH 2.7) and neutralization with 500 mmol/l tris (pH 8.0).
Supplementary Fig. 2 Systemic PCSK9 inhibition reduces serum LDL/VLDL and free PCSK9 levels. (A) Serum LDL/VLDL- and (B) HDL-cholesterol levels of 6-months-old 5xFAD mice, treated repetitively with 1 µg/g Evolocumab or non-specific human IgG2 control antibody for ten weeks were assessed via ELISA. Data represents mean ± SEM of n = 8 - 9 mice per group. For statistical analyses unpaired two-tailed t-test was used (*p <0.05). (C) Additionally, serum samples were precleared by using raw Protein A Agarose and incubated with Protein A Agarose crosslinked to Evolocumab. Levels of immunoprecipitated PCSK9 were evaluated via immunoblot analyses and representatively presented
On the technique in general: In western blotting, separated proteins are transferred to a membrane and probed.

Setting [6] is: 5xFAD LRP1BE−/− mice, 1 µg/g Alirocumab for 10 weeks vs 0.9% NaCl.
The mark [7] stands for this setting: 6-month-old female 5xFAD mice, 1 µg/g Alirocumab i.p. weekly for 10 weeks vs 0.9% NaCl, mean.
The mark [8] stands for this setting: 6-month-old 5xFAD mice, 1 µg/g Alirocumab for 10 weeks vs 0.9% NaCl.

As to “Alirocumab: FDA-approved monoclonal anti-PCSK9 antibody (Sanofi)”, in the series with 5xFAD mice [1] (setting [6]), the “soluble and insoluble Aβ1–40 and Aβ1–42 levels vs control-treated mice” value is “no significant difference”. Further, in the series with 5xFAD mice [1] (setting [7]), the “reduction of insoluble brain Aβ1–40” value is recorded as ~ 44%, the “reduction of insoluble brain Aβ1–42” value is listed as ~ 38%, the “reduction of soluble brain Aβ1–40” value is on record as ~ 58% and the “reduction of soluble brain Aβ1–42” value is given as ~ 51%. For the same molecule, in the series with 5xFAD mice [2] (n = 3–4 per group), the “reduction of plaque load, hippocampus” value is ~ 23%. Besides, the “reduction of plaque load, prefrontal cortex” value with 5xFAD mice [2] (n = 8 per group) is given as ~ 17%. Besides, the “hippocampus-dependent learning capacity (contextual fear)” value with 5xFAD mice [3] (setting [6]) is recorded as “do not significantly benefit”. Moreover, the “hippocampus-independent cued fear response” value in the series on 5xFAD mice [3] (5xFAD, 5xFAD LRP1BE−/− and wildtype littermates, PCSK9 inhibition or control, 2 h after contextual test) is “no significant differences”. The “contextual fear response (freezing) vs control-treated 5xFAD mice” value in the series with 5xFAD mice [3] (6-month-old 5xFAD mice, 1 µg/g Alirocumab for 10 weeks vs 0.9% NaCl, 24 h post-training) is “significant increased”. Moreover, in the series with 5xFAD mice [3] (setting [8]), the “activity and hyperactivity levels and basal freezing during the conditioning phase” value was “No differences”; the “motoric abilities and environmental behavior during the conditioning phase” value was “No differences”. For the same molecule, the “contextual freezing vs control-treated wildtype littermates” value with 5xFAD mice [3] (6-month-old 5xFAD mice, 1 µg/g Alirocumab for 10 weeks, 24 h post-training) was “no significant difference”. The “contextual freezing, treated vs control-treated wildtype animals” value with 5xFAD mice [3] (wildtype littermates, 1 µg/g Alirocumab for 10 weeks vs 0.9% NaCl) is on record as “did not detect any significant difference”. In addition, the “peripheral LRP1 level (liver lysates)” value in the series with 5xFAD mice [4] is recorded as “increases”.

B1: Evolocumab: FDA-approved monoclonal anti-PCSK9 antibody (Amgen) (antibody, chains of the INN, looked up, V domains shown)
VH: EVQLVQSGAEVKKPGASVKVSCKASGYTLTSYGISWVRQAPGQGLEWMGWVSFYNGNTNYAQKLQGRGTMTTDPSTSTAYMELRSLRSDDTAVYYCARGYGMDVWGQGTTVTVSS
VL: ESALTQPASVSGSPGQSITISCTGTSSDVGGYNSVSWYQQHPGKAPKLMIYEVSNRPSGVSNRFSGSKSGNTASLTISGLQAEDEADYYCNSYTSTSMVFGGGTKLTVL
For B1, the “serum LDL/VLDL-cholesterol level” value in the series with 5xFAD mice [5] is given as “reduces”. The “free PCSK9 level in serum” value with PCSK9 is reported as “reduces”.

The values are drawn from article PMC8960591, “PCSK9 acts as a key regulator of Aβ clearance across the blood–brain barrier” (Cellular and Molecular Life Sciences: CMLS, 2022).
